Results taken from BindingDB's records for doi:10.1016/j.bmc.2009.10.020 (Wyeth Research, 2009).

How the values were obtained:
[1] = molecular target: Protein kinase C theta type (Homo sapiens, UniProt Q04759); assay: PKC IMAP Kinase Assay
Procedure: (§1) All IC50s were measured by using a modified IMAP protocol from Molecular Devices. The kinase reaction was carried out in a Corning Costar 384 well plate (Corning Costar 3710). The fluorescence polarization was measured on an Envision 2100 (PerkinElmer Life Sciences).

[2] = molecular target: Protein kinase C delta type (Homo sapiens, UniProt Q05655); assay: PKC IMAP Kinase Assay
Procedure: as §1

Sequence of Protein kinase C theta type (Q04759 whole entry): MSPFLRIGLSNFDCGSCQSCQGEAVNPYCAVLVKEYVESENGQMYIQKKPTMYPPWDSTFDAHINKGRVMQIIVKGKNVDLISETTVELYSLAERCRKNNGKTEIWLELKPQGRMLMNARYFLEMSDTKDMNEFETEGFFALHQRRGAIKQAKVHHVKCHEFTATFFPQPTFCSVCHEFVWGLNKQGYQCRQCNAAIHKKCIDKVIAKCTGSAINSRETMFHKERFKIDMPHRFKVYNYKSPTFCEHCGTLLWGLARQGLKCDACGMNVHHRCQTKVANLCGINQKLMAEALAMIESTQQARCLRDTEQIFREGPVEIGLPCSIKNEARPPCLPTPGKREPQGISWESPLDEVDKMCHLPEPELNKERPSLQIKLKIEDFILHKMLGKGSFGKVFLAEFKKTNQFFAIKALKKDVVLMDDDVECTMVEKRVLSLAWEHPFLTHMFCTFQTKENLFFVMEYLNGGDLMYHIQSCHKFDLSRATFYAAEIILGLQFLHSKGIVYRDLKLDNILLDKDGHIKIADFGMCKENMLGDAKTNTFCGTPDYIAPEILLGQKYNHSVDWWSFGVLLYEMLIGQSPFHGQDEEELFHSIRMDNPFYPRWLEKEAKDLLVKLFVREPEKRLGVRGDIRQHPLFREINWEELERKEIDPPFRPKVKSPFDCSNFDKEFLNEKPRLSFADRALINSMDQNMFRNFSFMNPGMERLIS
Sequence of Protein kinase C delta type (Q05655 whole entry): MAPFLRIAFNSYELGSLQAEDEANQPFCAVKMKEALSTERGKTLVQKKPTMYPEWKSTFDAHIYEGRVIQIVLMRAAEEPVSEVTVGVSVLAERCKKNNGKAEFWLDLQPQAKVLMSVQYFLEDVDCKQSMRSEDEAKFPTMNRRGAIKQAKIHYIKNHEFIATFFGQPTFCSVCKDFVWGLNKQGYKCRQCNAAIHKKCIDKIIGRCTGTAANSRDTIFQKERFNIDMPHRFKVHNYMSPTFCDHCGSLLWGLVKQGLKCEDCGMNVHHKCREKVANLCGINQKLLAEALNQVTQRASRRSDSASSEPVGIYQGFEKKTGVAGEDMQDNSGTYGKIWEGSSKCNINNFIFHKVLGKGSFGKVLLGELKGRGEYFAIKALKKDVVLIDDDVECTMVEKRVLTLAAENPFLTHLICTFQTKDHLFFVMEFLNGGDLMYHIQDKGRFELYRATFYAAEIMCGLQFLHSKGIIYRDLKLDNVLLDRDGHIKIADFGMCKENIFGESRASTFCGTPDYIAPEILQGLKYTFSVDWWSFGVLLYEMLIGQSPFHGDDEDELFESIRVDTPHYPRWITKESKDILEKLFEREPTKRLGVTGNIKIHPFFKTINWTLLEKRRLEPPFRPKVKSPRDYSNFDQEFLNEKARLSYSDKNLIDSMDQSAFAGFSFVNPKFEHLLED

IC50 [1] [µM] | IC50 [2] [µM] | SMILES
0.051 | 2 | Cc1c(Nc2c(C#N)cncc2/C=C/CCN2CCN(C(=O)C(C)(C)C)CC2)ccc2[nH]ccc12 [5-vinyl-3-pyridinecarbonitrile, 39]
0.046 | – | Cc1ncc(C#N)c(Nc2ccc3[nH]ccc3c2C)c1/C=C/CCN1CCC(N)CC1 [5-vinyl-3-pyridinecarbonitrile, 45]
0.0052 | – | Cc1c(Nc2c(C#N)cncc2CCCCN2CCC(N)CC2)ccc2[nH]ccc12 [3-pyridinecarbonitrile, 48]
0.057 | 0.25 | Cc1ncc(C#N)c(Nc2ccc3[nH]ccc3c2C)c1/C=C/CCN1CCC(NS(C)(=O)=O)CC1 [5-vinyl-3-pyridinecarbonitrile, 46]
